From US20100004125A1 (priority 2007, published 2010)
Where two headings read alike, the source gives them in different places.

Tested on: Pyricularia oryzae
Type: cell-based

Structure (SMILES)	Efficacy (%) (single compound, Conc 2 ppm, micro titer plate, 405 nm, 7 days after inoculation)	Efficacy (%)
CC1(C)CC/C(=C\c2ccc(Cl)cc2)C1(O)Cn1cncn1 (single isomer, unassigned; (+)) [Triticonazol, (+) E-5-(4-chlorobenzylidene)-2,2-dimethyl-1-(1H-1,2,4-triazol-1-ylmethyl)cyclopentanol]	44	
CN/C(=N\[N+](=O)[O-])NCc1cnc(Cl)s1 [Chlothianidin, (E)-1-(2-chloro-1,3-thiazol-5-ylmethyl)-3-methyl-2-nitroguanidine]		8
